Laboratory results taken from PubChem BioAssay (NCI).
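Briefly, cells in 96-well plates were exposed to five compound concentrations for 48 h, and endpoints were estimated by linear interpolation. GI50 is the concentration that inhibits growth by half. TGI is the concentration that stops growth completely.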 Where a SMILES comes first, the peptide text is derived from it. The star is where a group is joined. Boc = CC(C)(C)OC(=O)*

Tests used:
Assay in all cases: NCI-60 cell line screen, 48 h
UACC-257 melanoma = tested on: UACC-257 melanoma
TK-10 renal = tested on: TK-10 renal
UACC-62 melanoma = tested on: UACC-62 melanoma
OVCAR-3 ovarian = tested on: OVCAR-3 ovarian
MOLT-4 leukemia = tested on: MOLT-4 leukemia
MDA-MB-435 = tested on: MDA-MB-435
SN12C renal = tested on: SN12C renal
OVCAR-8 ovarian = tested on: OVCAR-8 ovarian
M14 melanoma = tested on: M14 melanoma
OVCAR-5 ovarian = tested on: OVCAR-5 ovarian

Compound	TGI (UACC-257 melanoma) [µM]	TGI (TK-10 renal) [µM]	TGI (UACC-62 melanoma) [µM]	TGI (OVCAR-3 ovarian) [µM]	TGI (MOLT-4 leukemia) [µM]	TGI (MDA-MB-435) [µM]	TGI (SN12C renal) [µM]	TGI (OVCAR-8 ovarian) [µM]	TGI (M14 melanoma) [µM]	TGI (OVCAR-5 ovarian) [µM]	GI50 (UACC-257 melanoma) [µM]	GI50 (TK-10 renal) [µM]	GI50 (UACC-62 melanoma) [µM]	GI50 (OVCAR-3 ovarian) [µM]	GI50 (MOLT-4 leukemia) [µM]	GI50 (MDA-MB-435) [µM]	GI50 (SN12C renal) [µM]	GI50 (OVCAR-8 ovarian) [µM]	GI50 (M14 melanoma) [µM]	GI50 (OVCAR-5 ovarian) [µM]
Cc1ccnc(NC(NC(=O)c2ccccc2)(C(F)(F)F)C(F)(F)F)c1	> 100	> 100	> 100	> 100	> 100	> 100	> 100	> 100	> 100	> 100	–	–	–	–	–	–	–	–	–	–
OCCNCNc1nc(NCNCCO)nc(N(CNCCO)CNCCO)n1	40	72.1	35.6	58.7	67.7	35.8	60.8	59.5	36.6	21	–	–	–	–	–	–	–	–	–	–
N#Cc1cnc(N)nc1NCC1(CO)CC(CCc2ccccc2)C1 (stereo not given)	> 100	> 100	> 100	> 100	> 100	> 100	> 100	> 100	> 100	> 100	–	–	–	–	–	–	–	–	–	–
COC(=O)C(Cc1c[nH]c2ccccc12)NC(=O)C(Cc1c[nH]c2ccccc12)NC(=O)C(Cc1c[nH]c2ccccc12)NC(=O)C(Cc1c[nH]c2ccccc12)NC(=O)C(Cc1c[nH]c2ccccc12)NC(=O)C(Cc1c[nH]c2ccccc12)NC(=O)C(Cc1c[nH]c2ccccc12)NC(=O)C(Cc1c[nH]c2ccccc12)NC(=O)OC(C)(C)C (stereo not given) (Boc-WWWWWWWW-OMe; configuration not given here)	> 100	> 100	> 100	> 100	> 100	> 100	> 100	> 100	25.1	> 100	–	–	–	–	–	–	–	–	–	–
Cc1cc(S(=O)(=O)Nc2nc3ccccc3c(=O)n2N)c(S)cc1Cl	> 100	> 100	49.2	> 100	> 100	> 100	> 100	> 100	> 100	> 100	–	–	–	–	–	–	–	–	–	–
CO/N=C(\C)c1cccc(Nc2c3ccccc3nc3occc23)c1	25.6	48.8	22.5	19	37.9	6	38	66.4	25.7	46.8	–	–	–	–	–	–	–	–	–	–
C=CC(Cl)(CBr)CCC(Br)C(C)(C)Cl (stereo not given)	27.5	38.6	30.5	33.2	21.1	30.3	48.4	31.5	29	31.1	–	–	–	–	–	–	–	–	–	–
CCC(C#N)NCc1cccc(CNC(C#N)CC)c1 (stereo not given)	> 100	> 100	> 100	> 100	> 100	> 100	> 100	> 100	31.4	34.2	–	–	–	–	–	–	–	–	–	–
CCCCCCCCCCNC(=O)CCC(NC(=O)c1ccc(N(C)Cc2cnc3nc(N)nc(N)c3n2)cc1)C(=O)NCCCCCCCCCC (stereo not given)	> 60.1	> 92.7	49.5	26.8	30.5	15.4	> 57.2	25.5	57.7	66.1	–	–	–	–	–	–	–	–	–	–
O=[N+]([O-])c1ccc(N/N=C/c2ccc(OCCCCCCCCCCCO)cc2)c([N+](=O)[O-])c1	15.2	33.7	7.74	> 100	> 100	11.7	14.3	9.86	3.22	> 56.1	–	–	–	–	–	–	–	–	–	–
N#Cc1c(N)nc(Sc2ccccc2N)c(C#N)c1-c1ccc(Cl)cc1	62.9	> 48.5	13	31.9	> 24.6	37.5	40.4	41	38.5	> 87.3	–	–	–	–	–	–	–	–	–	–
Oc1ccc2c(c1)-c1c(c3ccccc3n1CCN1CCOCC1)CC2	84.6	94.4	81	> 100	> 100	> 100	> 100	> 100	88	61.3	–	–	–	–	–	–	–	–	–	–
Cn1c2ccccc2c(=O)c2cccc(C(=O)NC(CCC(N)=O)C(=O)O)c21 (stereo not given)	> 100	> 100	> 100	> 100	> 100	> 100	> 100	> 100	> 100	> 100	–	–	–	–	–	–	–	–	–	–
CO/N=C(\C)CCC#Cc1ccccc1C(=O)OC	> 10	> 10	> 10	> 10	> 10	> 10	> 10	> 10	> 10	> 10	–	–	–	–	–	–	–	–	–	–
COc1ccccc1C(=O)c1c(NCc2ccccc2)c(=O)c1=O	> 100	> 100	> 100	> 100	83.3	> 100	> 100	> 100	> 100	> 100	–	–	–	–	–	–	–	–	–	–
BrC(c1cccc2ccccc12)c1cccc2ccccc12	53.3	> 100	27.7	24.2	> 100	21.2	27.4	35.1	37.6	84.9	–	–	–	–	–	–	–	–	–	–
COc1cc2c(cc1OCCCC(=O)Nc1ccc3ccc4cccc5ccc1c3c45)N=C[C@@H]1CCCN1C2=O	0.104	0.237	0.0263	0.518	0.355	3.07	0.0423	< 0.0245	< 0.01	< 0.0506	0.0368	0.0384	< 0.01	0.197	0.0987	1.61	< 0.0136	< 0.0134	< 0.01	< 0.01
Cc1nc2c(=O)n(C)ncc2[nH]1	> 100	> 100	> 100	> 100	> 100	> 100	> 100	> 100	> 100	> 100	–	–	–	–	–	–	–	–	–	–
